Publication PMC5635000, “Structural and mechanistic characterization of an archaeal-like chaperonin from a thermophilic bacterium” (Nature Communications, 2017)
Each block holds one molecule with its values, some of them ahead of it.

Key:
[1] = biological target: T1, Ch-CPN (Carboxydothermus hydrogenoformans, UniProt Q3AF10); experiment: X-ray crystal structure, […] Å; type: binding; conditions: open conformation; nucleotide site of equatorial domain; no Mg2+ seen; 3 mM ADP, pH 7.0
T1 construct: gene CHY_0413; full-length wild type, 521 residues; recombinant from E. coli BL21(DE3), no tag mentioned; homo-hexadecamer of two octameric rings; residues 10-502 (5X9V) and 9-502 (5X9U) modelled
T1 sequence (Q3AF10 1-521): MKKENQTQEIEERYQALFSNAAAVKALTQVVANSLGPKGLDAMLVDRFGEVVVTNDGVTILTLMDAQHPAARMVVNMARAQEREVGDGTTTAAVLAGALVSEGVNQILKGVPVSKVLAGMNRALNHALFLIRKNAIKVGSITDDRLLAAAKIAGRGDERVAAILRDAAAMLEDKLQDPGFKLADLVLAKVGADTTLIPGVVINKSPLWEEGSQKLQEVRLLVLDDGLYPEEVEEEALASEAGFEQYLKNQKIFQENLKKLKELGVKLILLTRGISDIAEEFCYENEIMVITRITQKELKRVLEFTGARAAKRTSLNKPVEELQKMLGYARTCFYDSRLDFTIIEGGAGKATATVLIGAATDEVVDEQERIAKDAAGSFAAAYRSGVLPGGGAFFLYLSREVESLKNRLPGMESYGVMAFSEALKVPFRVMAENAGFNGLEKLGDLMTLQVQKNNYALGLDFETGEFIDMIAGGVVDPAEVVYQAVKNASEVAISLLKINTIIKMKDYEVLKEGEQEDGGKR

[2] = biological target: T1, Ch-CPN; experiment: X-ray crystal structure, […] Å; type: binding; conditions: closed conformation; nucleotide site of equatorial domain; Mg2+; 3 mM AMPPNP, pH 7.5
[3] = biological target: Ch-CPN L439A pivot joint mutant (Carboxydothermus hydrogenoformans) (UniProt Q3AF10); experiment: not stated; L439A subunits purified as hexadecameric chaperonins (Supplementary Fig. 12b)
[4] = biological target: Group III chaperonin from Carboxydothermus hydrogenoformans (Ch-CPN), wild type (Carboxydothermus hydrogenoformans) (UniProt Q3AF10); experiment: crystal structure; Ch-CPN with 3 mM AMPPNP, closed conformation; batch crystallisation at 22 °C, 20 mM MgCl2, 100 mM HEPES:NaOH pH 7.5; 3.0 Å

Molecule: Nc1ncnc2c1ncn2[C@@H]1O[C@H](COP(=O)(O)OP(=O)(O)O)[C@@H](O)[C@H]1O [ADP]
X-ray crystal structure, 4.0 Å [1]: The crystal structure of the ADP-bound Ch-CPN shows its fully open conformation

Molecule: Nc1ncnc2c1ncn2[C@@H]1O[C@H](COP(=O)(O)OP(=O)(O)NP(=O)(O)O)[C@@H](O)[C@H]1O [AMPPNP]
X-ray crystal structure, 3.0 Å [2]: crystal structure of Ch-CPN in complex with AMPPNP, an ATP analog, revealed its closed conformation

stoichiometry N [3]: 16
Molecule: Ch-CPN L439A pivot joint mutant (from UniProt Q3AF10 1-521) (natural protein)

stoichiometry N [4]: 16
Molecule: Group III chaperonin from Carboxydothermus hydrogenoformans (Ch-CPN), wild type (from UniProt Q3AF10 1-521) (natural protein)
